From ChEMBL document CHEMBL4138125, “Recent advances in discovery and development of natural products as source for anti-Parkinson's disease lead compounds” (2017)

Legend:
Type in all cases: functional
[1] = Neuroprotective activity in OF1/SPF […] brain dopaminergic neurons assessed as suppression of long-term rotenone-induced cell death at 0.1 to 10 uM incubated concomitantly with rotenone from days 6 to 12
[2] = Neuroprotective activity in OF1/SPF […] brain dopaminergic neurons assessed as suppression of MPP+-induced cell death at 0.1 to 10 uM pre-incubated for 4 days tarting from day 8 before MPP+ challenge for 48 hrs
[3] = Neuroprotective activity in OF1/SPF […] brain dopaminergic neurons assessed as suppression of short-term rotenone -induced cell death at 0.1 to 10 uM pre-incubated for 4 days starting from day 8 before rotenone challenge for 48 hrs

SMILES: CC1=CC(=O)C(C(C)C)=CC1=O [THYMOQUINONE]
- Activity [1]: 24%
- Activity [2]: 40%
- Activity [3]: 33%
